From US11413295B2, “Oral preparation of obeticholic acid” (Intercept Pharmaceuticals, Inc., priority 2016, dated 2022)
≈ marks a conversion by molar mass, not a printed value. Read-outs that look alike come from different tables or passages of the source.

Tests used:
[1] = Obeticholic acid solubility in various test solutions; format: physicochemical; details: read-out: Dissolved concentration
[2] = Chemical stability: obeticholic acid dimer production by HPLC (Test Example 3); format: physicochemical
Procedure: The following assessments were carried out to see whether, in cases where the amorphous form of obeticholic acid was used, there were any changes in chemical stability even after wet granulation. Specifically, measurements were taken of the amounts in which obeticholic acid dimers were produced (referred to in Patent Document 2 as “Impurity 6,” “3α (3α, 7α-dihydroxy-6α-ethyl-5β-cholan-24-oyloxy)-7α-hydroxy-6α-ethyl-5β-cholan-24-oic acid,” and “6ECDCA dimer”), which were confirmed to have a high propensity to increase in the preparation process and stability tests among known related substances of obeticholic acid disclosed in Patent Document 2, for example.
Test tubes containing the obeticholic acid prepared in Example 19 and the obeticholic acid 20 mg FC tablets of Example 4 were stored under the following conditions. The amounts in which obeticholic acid dimer was produced before (initial) and after storage were measured in accordance with Test Example 3. […]
4 weeks at 60° C. (closed)
Acetonitrile/water (9/1) was added in an amount of exactly 10 mL to test tubes that had been retrieved from storage, and the contents were ultrasonically treated to extract the obeticholic acid. Following centrifugation (10 min at 3000 rpm), the supernatant was made into samples for HPLC assay (500 μg/mL obeticholic acid).
One tablet containing 20 mg obeticholic acid (per tablet) that had been retrieved from storage was introduced into a 40 mL graduated measuring flask. Acetonitrile/water (9/1) was added to the graduated measuring flask, the contents were ultrasonically treated (10 min), and it was confirmed that the tablet had disintegrated. The contents were thoroughly shaken (60 min at 300 rpm) using a shaker, and were again ultrasonically treated to extract the obeticholic acid. Acetonitrile/water (9/1) were added to a constant volume, followed by centrifugation (10 min at 3000 rpm), and the supernatant was made into samples for HPLC assay (500 μg/mL).
50 mg of obeticholic acid was weighed out into a 100 mL graduated measuring flask and dissolved using acetonitrile/water (9/1) (500 μg/mL). The resulting solution was diluted with acetonitrile/water (9/1) to prepare 15.0 μg/mL (3.0%), 5.0 μg/mL (1.0%), and 0.25 μg/mL (0.05%) standard solutions.
The above three standard solutions were used to produce a calibration curve, and the obeticholic acid dimer contained in the sample solutions was quantified. The conditions of analysis are shown below.
Detector: Charged particle detector
Column: by Sigma-Aldrich, SUPELCO Discovery C8 (particle size: 5 μm; internal
Mobile phase: Acetonitrile/methanol/acetic acid aqueous solution (pH 3.0) mixture (8/1/1)

## CC[C@H]1[C@@H](O)[C@@H]2[C@H](CC[C@]3(C)[C@@H]([C@H](C)CCC(=O)O)CC[C@@H]23)[C@@]2(C)CC[C@@H](O)C[C@@H]12 [Obeticholic acid, 6α-ethyl-3α, 7 α-dihydroxy-5β-cholan-24-oic acid]
[1]; JP1, pH 1.2, simulated gastric fluid
  solubility: 4.07 µg/mL (≈ 9.68 µM)
[1]; JP2, pH 6.8, aqueous buffer
  solubility: 306 µg/mL (≈ 729 µM)
[1]; aqueous buffer, pH 3.0 McIlvaine buffer
  solubility: 4.43 µg/mL (≈ 10.5 µM)
[1]; aqueous buffer, pH 4.0 McIlvaine buffer
  solubility: 4.66 µg/mL (≈ 11.1 µM)
[1]; aqueous buffer, pH 5.0 McIlvaine buffer
  solubility: 11.4 µg/mL (≈ 27.1 µM)
[1]; aqueous buffer, pH 6.0 McIlvaine buffer
  solubility: 60.6 µg/mL (≈ 144 µM)
[1]; water
  solubility: 21.4 µg/mL (≈ 51 µM)
[2]; 50° C., 85% RH open 4 W
  Amount of obeticholic acid dimer production: 0.83%
  Increase in obeticholic acid dimer from initial product: 0.79%
[2]; 60° C. closed 4 W
  Amount of obeticholic acid dimer production: 0.81%
  Increase in obeticholic acid dimer from initial product: 0.77%
[2]; Initial
  Amount of obeticholic acid dimer production: 0.04%
